Source: patent US20200231562A1, “NOVEL MACROLIDE ANTIBIOTICS” (HELMHOLTZ-ZENTRUM FÜR INFEKTIONSFORSCHUNG GMBH, priority 2014, published 2020)
≈ marks a conversion by molar mass, not a printed value.

How the values were obtained:
Experiment in all cases: Cytotoxicity (MTT) assay, antiproliferative activity
Assay type in all cases: cell-based
[1] = system: Chinese hamster ovary CHO-K1 cells (ACC-110); conditions: Cricetulus griseus, 120 h, CHO-K1, 5 d incubation
Procedure: (§1) Half maximal inhibitory concentrations (IC50) in μg/ml of disciformycin A (1) and disciformycin B (2) for inhibiting the proliferative activity of human HCT-116 colon carcinoma cells, mouse fibroblast cells L929, and Chinese hamster ovary CHO-K1 cells were determined. Cells were seeded at 6×10^3 cells per well of 96-well plates (Corning CellBind®) in complete medium (180 μl) and directly treated with disciformycin dissolved in DMSO in serial dilution. The compound was tested in duplicate, as well as the internal solvent control. After 5 d incubation, 5 mg/ml MTT in PBS (20 μL) was added per well and it was further incubated for 2 h at 37° C. The medium was then discarded and cells were washed with PBS (100 μl) before adding 2-propanol/10N HCl (250:1, v/v; 100 μl) in order to dissolve formazan granules. The absorbance at 570 nm was measured using a microplate reader (EL808, Bio-Tek Instruments Inc.). The amount of formazan, i.e. relative absorption, is thereby proportional to the number of actively proliferating cells.

[2] = system: HCT-116 colon carcinoma cells (ACC-581); conditions: Homo sapiens, 120 h, HCT-116, 5 d incubation
Procedure: as §1

[3] = system: Mouse fibroblast cells L929 (ACC-2); conditions: 120 h, L929, 5 d incubation
Procedure: as §1

C/C=C(/C)[C@H]1C/C=C(\C)[C@@H](O[C@H]2O[C@H](CO)[C@@H](O)[C@@H]2O)[C@H](OC(=O)CC(C)C)C(=O)C/C=C(/C)C(=O)O1 [Compound 1, disciformycin A]
IC50 [1]: 16.6 µg/mL (≈ 31.6 µM) | IC50 [2]: 13 µg/mL (≈ 24.8 µM) | IC50 [3]: 29 µg/mL (≈ 55.3 µM)
